Results: patent publication US11737999B2, “Amino acid compositions and methods for the treatment of post-acute sequelae of COVID-19” (AXCELLA HEALTH INC., priority 2021, dated 2023)

Key:
[1] = system: IL-6; assay: LPS-induced IL-6 secretion in primary human monocyte-derived macrophages; conditions: for IL-6 Measurements, Mean: LPS, baseline subtracted values
[2] = system: MCP-1; assay: MCP-1 chemokine secretion in primary human hepatic stellate cells stimulated with TNFα; type: cell-based; conditions: hepatic stellate cells, two donors
[3] = system: IL-6; assay: IL-6 cytokine secretion in primary human hepatic stellate cells stimulated with TNFα; type: cell-based; conditions: hepatic stellate cells, two donors
[4] = system: MCP1/CCL2; assay: MCP1/CCL2 secretion by ELISA in primary human hepatocytes with FFA + TNFα; type: cell-based
[5] = system: TNF-α; assay: LPS-induced TNF-α secretion in primary human monocyte-derived macrophages; conditions: for TNF-α Measurements Mean (baseline subtracted): 0.15 ng/mL LPS
[6] = system: Col1a1; assay: Col1a1 gene expression (RT-qPCR) in primary human hepatic stellate cells stimulated with TGFβ1; type: cell-based; conditions: for Col1a1 Fold Expression Relative to Control, Mean: single amino acid
[7] = system: Procollagen Iα1; assay: Procollagen Iα1 secretion (ELISA) in primary human hepatic stellate cells stimulated with TGFβ1; type: cell-based; conditions: hepatic stellate cells, three donors
[8] = Donor 2, Conc. 153 μM (baseline)
[9] = Donor 2, Conc. 749 μM (baseline)

## CC(C)C[C@H](N)C(=O)O [Leucine, L-Leucine]
[1]; Donor 1, Conc. 153 μM (baseline)
  IL-6 Measurements, Mean: 0
[1]; Donor 2
  LPS-induced IL-6 secretion (summary in words): increased IL-6 secretion
[1]; [8]
  IL-6 Measurements, Mean: 7.11E−15
[1]; Donor 2, Conc. 3054 μM
  IL-6 Measurements, Mean: 29.61
[1]; Donor 2, Conc. 7635 μM
  IL-6 Measurements, Mean: 30.46
[1]; Donor 2, Conc. 15270 μM
  IL-6 Measurements, Mean: 47.6
[2]
  MCP-1 secretion (summary in words): no significant impact on MCP-1 secretion
[3]
  IL-6 secretion (summary in words): no significant effect on IL-6 secretion
[4]; Donor 1, Conc. 153 μM
  MCP1 expression relative to Control, Mean: 5.92E−16
[4]; Donor 1, Conc. 3054 μM
  MCP1 expression relative to Control, Mean: 3.34
[4]; Donor 1, Conc. 7635 μM
  MCP1 expression relative to Control, Mean: 1.896
[4]; Donor 1, Conc. 15270 μM
  MCP1 expression relative to Control, Mean: −1.368
[4]; Donor 2, Conc. 153 μM
  MCP1 expression relative to Control, Mean: −4.7E−15
[4]; Donor 2, Conc. 3054 μM
  MCP1 expression relative to Control, Mean: 16.11
[4]; Donor 2, Conc. 7635 μM
  MCP1 expression relative to Control, Mean: −2.988
[4]; Donor 2, Conc. 15270 μM
  MCP1 expression relative to Control, Mean: −26.6436
[5]; Donor 1, Conc. 3054 μM
  TNF-α Measurements Mean (baseline subtracted): 42.04
[5]; Donor 1, Conc. 7635 μM
  TNF-α Measurements Mean (baseline subtracted): −23.04
[5]; Donor 1, Conc. 15270 μM
  TNF-α Measurements Mean (baseline subtracted): −46.21
[5]; Donor 2
  LPS-induced TNF-α secretion (summary in words): increased TNF-α secretion
[5]; [8]
  TNF-α Measurements Mean (baseline subtracted): 0
[5]; Donor 2, Conc. 3054 μM
  TNF-α Measurements Mean (baseline subtracted): 31.74
[5]; Donor 2, Conc. 7635 μM
  TNF-α Measurements Mean (baseline subtracted): 41.98
[5]; Donor 2, Conc. 15270 μM
  TNF-α Measurements Mean (baseline subtracted): 46.69

## N=C(N)NCCC[C@H](N)C(=O)O [Arginine, L-Arginine]
[1]; Donor 1
  LPS-induced IL-6 secretion (summary in words): increased IL-6 secretion
[2]
  MCP-1 secretion (summary in words): no significant impact on MCP-1 secretion
[6]; hepatic stellate cells, three donors
  Col1a1 gene expression (summary in words): did not significantly change Col1a1 gene expression in any donor
[6]; second donor (Table 27), 1088 μM
  Col1a1 Fold Expression Relative to Control, Mean: 0.99 fold
[6]; second donor (Table 27), 2720 μM
  Col1a1 Fold Expression Relative to Control, Mean: 1.15 fold
[6]; second donor (Table 27), 5440 μM
  Col1a1 Fold Expression Relative to Control, Mean: 1.15 fold
[6]; second donor (Table 29), 1088 μM
  Col1a1 Fold Expression Relative to Control, Mean: 0.95 fold
[6]; second donor (Table 29), 2720 μM
  Col1a1 Fold Expression Relative to Control, Mean: 0.99 fold
[6]; second donor (Table 29), 5440 μM
  Col1a1 Fold Expression Relative to Control, Mean: 1.02 fold
[7]
  procollagen Iα1 secretion (summary in words): significantly increased procollagen Iα1 secretion in two of three donors
[3]
  IL-6 secretion (summary in words): no significant effect on IL-6 secretion
[4]; primary human hepatocytes, two healthy donors
  MCP1/CCL2 secretion (summary in words): increased MCP1 secretion

## NC(=O)CC[C@H](N)C(=O)O [Glutamine, L-Glutamine]
[1]; Donor 1
  LPS-induced IL-6 secretion (summary in words): increased IL-6 secretion
[1]; Donor 1, Conc. 749 μM (baseline)
  IL-6 Measurements, Mean: 0
[1]; Donor 2
  LPS-induced IL-6 secretion (summary in words): increased IL-6 secretion
[1]; [9]
  IL-6 Measurements, Mean: 2.37E−15
[1]; Donor 2, Conc. 3747 μM
  IL-6 Measurements, Mean: 22.52
[1]; Donor 2, Conc. 11242 μM
  IL-6 Measurements, Mean: 63.31
[1]; Donor 2, Conc. 22484 μM
  IL-6 Measurements, Mean: 34.39
[1]; Donor 3
  LPS-induced IL-6 secretion (summary in words): significantly increased IL-6 secretion
[2]
  MCP-1 secretion (summary in words): reduced MCP1 secretion in both donors but was only statistically significant in one of two donors
[3]
  IL-6 secretion (summary in words): significantly reduced IL-6 secretion in both donors
[4]; Donor 1, Conc. 749 μM
  MCP1 expression relative to Control, Mean: 0
[4]; Donor 1, Conc. 3747 μM
  MCP1 expression relative to Control, Mean: −0.8981
[4]; Donor 1, Conc. 11242 μM
  MCP1 expression relative to Control, Mean: −9.001
[4]; Donor 1, Conc. 22484 μM
  MCP1 expression relative to Control, Mean: −21.8392
[4]; Donor 2, Conc. 749 μM
  MCP1 expression relative to Control, Mean: 2.84E−14
[4]; Donor 2, Conc. 3747 μM
  MCP1 expression relative to Control, Mean: −45.0574
[4]; Donor 2, Conc. 11242 μM
  MCP1 expression relative to Control, Mean: −90.6558
[4]; Donor 2, Conc. 22484 μM
  MCP1 expression relative to Control, Mean: −138.873
[5]; Donor 1, Conc. 3747 μM
  TNF-α Measurements Mean (baseline subtracted): −45.7
[5]; Donor 1, Conc. 11242 μM
  TNF-α Measurements Mean (baseline subtracted): −65.24
[5]; Donor 1, Conc. 22484 μM
  TNF-α Measurements Mean (baseline subtracted): −103.07
[5]; Donor 2
  LPS-induced TNF-α secretion (summary in words): increased TNF-α secretion
[5]; [9]
  TNF-α Measurements Mean (baseline subtracted): −9.5E−15
[5]; Donor 2, Conc. 3747 μM
  TNF-α Measurements Mean (baseline subtracted): 9.338
[5]; Donor 2, Conc. 11242 μM
  TNF-α Measurements Mean (baseline subtracted): 20.04
[5]; Donor 2, Conc. 22484 μM
  TNF-α Measurements Mean (baseline subtracted): 11.5
[5]; Donor 3
  LPS-induced TNF-α secretion (summary in words): increased TNF-α secretion
[5]; Donor 3, Conc. 749 μM (baseline)
  TNF-α Measurements Mean (baseline subtracted): 0
[5]; Donor 3, Conc. 3747 μM
  TNF-α Measurements Mean (baseline subtracted): 1.936
[5]; Donor 3, Conc. 11242 μM
  TNF-α Measurements Mean (baseline subtracted): 18
[5]; Donor 3, Conc. 22484 μM
  TNF-α Measurements Mean (baseline subtracted): 29.14
